System: rabbit platelets
Experiment: ADP induced platelet aggregation in vitro, turbidimetric method (Born and Cross, modified)
Format: cell-based
Conditions: percent of ADP controls, rabbit PRP
From the text: For the relevant study on the platelet aggregation "in vitro" herein, the turbidimetric method initially described by Born and Cross (J. Physiol. 168, 178, 1963) has been followed with some changes, principally due to the use of rabbit platelets, rather than human or pig platelets, as reported in their original work: (1) Preparation of platelet-rich plasma (PRP) and platelet-poor plasma (PPP) Male rabbits weighing 2.5-3.5 kg were used. Fifty four ml of blood were withdrawn from the carotid artery of rabbits anaesthetized with ether. The blood was gently mixed with six ml of 3.8% trisodium citrate as anticoagulant. The PRP was obtained by centrifugation at 400 g for 10 minutes. The concentration of the platelets was adjusted to 250,000/mm^3 by diluting the PRP with PPP prepared by a second centrifugation of the blood samples for about 10 minutes at 2000 g. The aggregation experiments were in general performed within 1-2 hr. from the time of blood collection. (2) ADP induced platelet aggregation In the cuvette of the aggregometer, reagents were added as follows: 0.8 ml PRP, 0.2 ml drug solution or saline, and 0.2 ml ADP (adenosine diphosphate) at the molar concentration of 2.2 × 10^-4. The turbidimetry was checked after 11/2, 3 and 6 minutes. The inhibition of the aggregation is given in the table as percent of ADP controls at these three times.

[1] = 1 minute and 30 seconds after ADP, 50 γ
[2] = 1 minute and 30 seconds after ADP, 100 γ
[3] = 1 minute and 30 seconds after ADP, 200 γ

| Structure (SMILES) | percent inhibition of platelet aggregation [1] [%] | percent inhibition of platelet aggregation [2] [%] | percent inhibition of platelet aggregation [3] [%] | percent inhibition of platelet aggregation (3 minutes after ADP, 50 γ) [%] | percent inhibition of platelet aggregation (3 minutes after ADP, 100 γ) [%] | percent inhibition of platelet aggregation (3 minutes after ADP, 200 γ) [%] | percent inhibition of platelet aggregation (6 minutes after ADP, 50 γ) [%] | percent inhibition of platelet aggregation (6 minutes after ADP, 100 γ) [%] | percent inhibition of platelet aggregation (6 minutes after ADP, 200 γ) [%] |
| --- | --- | --- | --- | --- | --- | --- | --- | --- | --- |
| CO[C@]12C[C@@H](CNc3cc(C)ccn3)CN(C)[C@@H]1Cc1cn(C)c3cccc2c13 [compound 894, N-(4'-methyl-2'-pyridyl)-10α-methoxy-1,6-dimethylergoline-8β-methanamine] | 22 | 61 | 100 | 22 | 61 | 100 | 29 | 71 | 100 |
| CO[C@]12C[C@@H](CNc3ccc(Br)cn3)CN(C)[C@@H]1Cc1cn(C)c3cccc2c13 [compound 893, N-(5'-bromo-2'-pyridyl)-10α-methoxy-1,6-dimethylergoline-8β-methanamine] | 31 | 58 | 63 | 14 | 46 | 69 | 7 | 52 | 71 |
| CO[C@]12C[C@@H](COC(=O)c3cncc(Br)c3)CN(C)[C@@H]1Cc1cn(C)c3cccc2c13 [355/347, 10-methoxy-1,6-dimethyl-8β-methanol-5-bromonicotinate, reference compound] | 11 | 24 | 40 | 12 | 21 | 50 | 22 | 33 | 60 |
| CO[C@]12C[C@@H](CNc3ccccn3)CN(C)[C@@H]1Cc1cn(C)c3cccc2c13 [compound 925, N-(2'-pyridyl)-10α-methoxy-1,6-dimethylergoline-8β-methanamine] | 16 | 50 | 100 | 21 | 56 | 100 | 30 | 65 | 100 |
| CO[C@]12C[C@@H](CNc3cc(C)cc(C)n3)CN(C)[C@@H]1Cc1cn(C)c3cccc2c13 [compound 897, N-(4',6'-dimethyl-2'-pyridyl)-10α-methoxy-1,6-dimethylergoline-8β-methanamine] | 31 | 62 | 89 | 22 | 51 | 91 | 25 | 56 | 92 |
| CO[C@]12C[C@@H](CSc3ccc([N+](=O)[O-])cn3)CN(C)[C@@H]1Cc1cn(C)c3cccc2c13 [compound 926, 5'-Nitro-2'-pyridyl-10α-methoxy-1,6-dimethylergoline-8β-methyl sulphide] | 25 | 61 | 100 | 13 | 55 | 100 | 17 | 65 | 100 |

— patent publication US4089862A, “Pyridyl substituted ergoline derivatives” (Societa' Farmaceutici Italia S.p.A., priority 1976, dated 1978)
